# Values of other authors, collected in US8187629B2, “Non-lamellar compositions of DOPE and P80” (Camurus AB, priority 2004, dated 2012).
# Settings: room temperature; greater at physiological temperature
smiles,measurement,value
"CCCCCCCC/C=C\CCCCCCCC(=O)OCC(O)CO (stereo not shown) [GMO, glycerol monooleate]",equilibrium water solubility,at least 10^−7 M
